Measured values taken from patent publication US8470010B2, “Systems and methods for treating superficial venous malformations like spider veins” (Green Medical, Inc., priority 2006, dated 2013).

Legend:
[1] = system: superficial venous anatomy of the ears; assay: Photodynamic treatment of superficial venous anatomy of rabbit ears (IV LS11, then 664 nm LED light); assay type: in vivo, New Zealand White Rabbits
Description: The superficial venous anatomy of the ears of New Zealand White Rabbits were treated by injecting light-reactive agent LS11 (Talaporfin Sodium) in doses selected to approximate a human dose, and thereafter exposing the superficial venous anatomy to light at a wavelength of 664 nm in dose periods ranging from 8 to 12 minutes.
A total of twelve rabbits were treated. Each rabbit (weighing approximately six pounds) was intravaneously sedated for approximately 25 minutes using Ketamine and secured to a treatment table before being treated. The ears were shaved clean of hair and skin prepped with alcohol.
LS11 (Talaporfin Sodium, from Light Sciences Oncology, Inc.) was selected as the light reactive agent 14. […] Different doses of LS11 (at a concentration of 0.125 mg per cc) were administered to different rabbits, at 0.25 mg/kg; 0.50 mg/kg; 1.0 mg/kg; and 1.5 mg/kg, respectively. The doses were selected to approximate a human dose of 3 mg/ml to 10 mg/ml (a dose of 0.2 to 0.5 mg/kg).
The doses were administered to each rabbit's ear intravenously in a slow bolus method over a period of 5 minutes. After a pre-selected delay of ten minutes following the injection, a light-applying carrier 60 of the type shown in FIG. 18A (with a linear array of three LED's) was laid on the head of the rabbit over the treated ear, which was held tight against the carrier (see FIG. 20). […]

cancer (solid tumors) = conditions: with array of light emitting diodes; preclinical and human clinical trials in United States, Europe and Japan; cited from earlier work

SMILES: C=Cc1c(C)c2cc3nc(c(CC(=O)N[C@@H](CC(=O)O)C(=O)O)c4[nH]c(cc5nc(cc1[nH]2)C(C)=C5CC)c(C)c4C(=O)O)[C@@H](CCC(=O)O)[C@@H]3C [LS11, mono-L-aspartyl chlorine e6]
- Visible alterations in the superficial venous anatomy (shrinkage of veins) in treated ear ([1]; IV 0.25, 0.50, 1.0 or 1.5 mg/kg, 664 nm light for 8 to 12 minutes, other ear as control): Visible alterations in the superficial venous anatomy due to shrinkage of veins in the treated regions were observed
- Alteration of superficial venous anatomy, treated ear vs control ear (FIG. 21) ([1]; LS11 dose 1.5 mg/kg IV, light dose 8 min of 664 nm light): visibly alter the superficial venous anatomy, due to shrinkage of veins in the targeted region
- Efficacy in treating cancer (solid tumors) (cancer (solid tumors)): has shown efficacy in treating cancer (solid tumors)
